Measurements: the supplement of paper PMC10307832

Key:
Experiment in all cases: relative viability (nuclei count vs DMSO), 5 days (fraction); higher = more cells survive
HCC-827 = tested on: HCC-827
Method in brief: (§1)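 Relative viability divides the nuclei count in treated wells by that in vehicle wells. Lung cancer cell lines were seeded in 1536-well plates, dosed by pin tool the next day, and fixed and stained after 5 days in one step with final 0.05% Triton X-100, 1% formaldehyde and 1 ug/ml Hoechst. Dosing was a single drug or a fixed anchor-drug dose plus five library-drug doses (not always all listed) in √10 steps, and values are medians of duplicate plates imaged at 4×.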

NCI-H2126 = tested on: NCI-H2126
Method in brief: as §1

NCI-H1395 = tested on: NCI-H1395
Method in brief: as §1

LXF-289 = tested on: LXF-289
Method in brief: as §1

NCI-H650 = tested on: NCI-H650
Method in brief: as §1

NCI-H2170 = tested on: NCI-H2170
Method in brief: as §1

NCI-H647 = tested on: NCI-H647
Method in brief: as §1

NCI-H2347 = tested on: NCI-H2347
Method in brief: as §1

NCI-H358 = tested on: NCI-H358
Method in brief: as §1

RERF-LC-KJ = tested on: RERF-LC-KJ
Method in brief: as §1

NCI-H23 = tested on: NCI-H23
Method in brief: as §1

SW 900 = tested on: SW 900
Method in brief: as §1

LCLC-103H = tested on: LCLC-103H
Method in brief: as §1

PC-3 [JPC-3] = tested on: PC-3 [JPC-3]
Method in brief: as §1

NCI-H441 = tested on: NCI-H441
Method in brief: as §1

LOU-NH91 = tested on: LOU-NH91
Method in brief: as §1

NCI-H596 = tested on: NCI-H596
Method in brief: as §1

NCI-H1793 = tested on: NCI-H1793
Method in brief: as §1

ChaGo-K-1 = tested on: ChaGo-K-1
Method in brief: as §1

NCI-H322M = tested on: NCI-H322M
Method in brief: as §1

HOP-62 = tested on: HOP-62
Method in brief: as §1

EPLC-272H = tested on: EPLC-272H
Method in brief: as §1

NCI-H1651 = tested on: NCI-H1651
Method in brief: as §1

NCI-H1755 = tested on: NCI-H1755
Method in brief: as §1

## Nc1cccc2c1CN(C1CCC(=O)NC1=O)C2=O (stereo unspecified) [Lenalidomide] + NC(=O)Nc1cc(-c2cccc(F)c2)sc1C(=O)N[C@H]1CCCNC1 [AZD7762] (partner 0.2 µM)
HCC-827; first compound 0.253 µM
  relative viability: 0.264
HCC-827; first compound 0.8 µM
  relative viability: 0.325
HCC-827; first compound 2.53 µM
  relative viability: 0.255
HCC-827; first compound 8 µM
  relative viability: 0.206
NCI-H2126; first compound 0.253 µM
  relative viability: 0.973
NCI-H2126; first compound 0.8 µM
  relative viability: 1.03
NCI-H2126; first compound 2.53 µM
  relative viability: 1.05
NCI-H2126; first compound 8 µM
  relative viability: 0.947
NCI-H1395; first compound 0.253 µM
  relative viability: 0.405
NCI-H1395; first compound 2.53 µM
  relative viability: 0.387
NCI-H1395; first compound 8 µM
  relative viability: 0.376
LXF-289; first compound 0.253 µM
  relative viability: 1.09
LXF-289; first compound 0.8 µM
  relative viability: 1.1
LXF-289; first compound 2.53 µM
  relative viability: 1.23
LXF-289; first compound 8 µM
  relative viability: 1.26
NCI-H650; first compound 0.253 µM
  relative viability: 1.06
NCI-H650; first compound 0.8 µM
  relative viability: 0.927
NCI-H650; first compound 2.53 µM
  relative viability: 1.06
NCI-H650; first compound 8 µM
  relative viability: 0.89
NCI-H2170; first compound 0.253 µM
  relative viability: 0.861
NCI-H2170; first compound 0.8 µM
  relative viability: 0.703
NCI-H2170; first compound 2.53 µM
  relative viability: 0.976
NCI-H2170; first compound 8 µM
  relative viability: 0.739
NCI-H647; first compound 0.253 µM
  relative viability: 0.485
NCI-H647; first compound 0.8 µM
  relative viability: 0.401
NCI-H647; first compound 2.53 µM
  relative viability: 0.499
NCI-H647; first compound 8 µM
  relative viability: 0.498
NCI-H2347; first compound 0.253 µM
  relative viability: 0.787
NCI-H2347; first compound 0.8 µM
  relative viability: 0.689
NCI-H2347; first compound 2.53 µM
  relative viability: 0.811
NCI-H2347; first compound 8 µM
  relative viability: 0.703
NCI-H358; first compound 0.253 µM
  relative viability: 0.521
NCI-H358; first compound 0.8 µM
  relative viability: 0.713
NCI-H358; first compound 2.53 µM
  relative viability: 0.494
NCI-H358; first compound 8 µM
  relative viability: 0.621
RERF-LC-KJ; first compound 0.253 µM
  relative viability: 1.01
RERF-LC-KJ; first compound 0.8 µM
  relative viability: 0.319
RERF-LC-KJ; first compound 2.53 µM
  relative viability: 1.18
RERF-LC-KJ; first compound 8 µM
  relative viability: 0.82
NCI-H23; first compound 0.253 µM
  relative viability: 0.253
NCI-H23; first compound 2.53 µM
  relative viability: 0.22
NCI-H23; first compound 8 µM
  relative viability: 0.229
SW 900; first compound 2.53 µM
  relative viability: 0.578
SW 900; first compound 8 µM
  relative viability: 0.456
LCLC-103H; first compound 0.253 µM
  relative viability: 0.755
LCLC-103H; first compound 0.8 µM
  relative viability: 0.796
LCLC-103H; first compound 2.53 µM
  relative viability: 0.786
LCLC-103H; first compound 8 µM
  relative viability: 0.589
PC-3 [JPC-3]; first compound 0.253 µM
  relative viability: 0.888
PC-3 [JPC-3]; first compound 0.8 µM
  relative viability: 0.467
PC-3 [JPC-3]; first compound 2.53 µM
  relative viability: 0.944
PC-3 [JPC-3]; first compound 8 µM
  relative viability: 0.667
NCI-H441; first compound 0.253 µM
  relative viability: 1.3
NCI-H441; first compound 0.8 µM
  relative viability: 1.15
NCI-H441; first compound 2.53 µM
  relative viability: 1.17
NCI-H441; first compound 8 µM
  relative viability: 1.26
LOU-NH91; first compound 0.253 µM
  relative viability: 0.781
LOU-NH91; first compound 0.8 µM
  relative viability: 0.702
LOU-NH91; first compound 2.53 µM
  relative viability: 0.766
LOU-NH91; first compound 8 µM
  relative viability: 0.647
NCI-H596; first compound 0.253 µM
  relative viability: 1.13
NCI-H596; first compound 0.8 µM
  relative viability: 1.09
NCI-H596; first compound 2.53 µM
  relative viability: 1.1
NCI-H596; first compound 8 µM
  relative viability: 1
NCI-H1793; first compound 0.253 µM
  relative viability: 0.476
NCI-H1793; first compound 2.53 µM
  relative viability: 0.821
NCI-H1793; first compound 8 µM
  relative viability: 0.389
ChaGo-K-1; first compound 0.253 µM
  relative viability: 0.916
ChaGo-K-1; first compound 0.8 µM
  relative viability: 0.853
ChaGo-K-1; first compound 2.53 µM
  relative viability: 1.02
ChaGo-K-1; first compound 8 µM
  relative viability: 0.893
NCI-H322M; first compound 0.253 µM
  relative viability: 0.543
NCI-H322M; first compound 0.8 µM
  relative viability: 0.55
NCI-H322M; first compound 2.53 µM
  relative viability: 0.596
NCI-H322M; first compound 8 µM
  relative viability: 0.442
HOP-62; first compound 0.253 µM
  relative viability: 0.552
HOP-62; first compound 0.8 µM
  relative viability: 0.838
HOP-62; first compound 2.53 µM
  relative viability: 0.711
HOP-62; first compound 8 µM
  relative viability: 0.533
EPLC-272H; first compound 0.253 µM
  relative viability: 0.23
EPLC-272H; first compound 0.8 µM
  relative viability: 0.202
EPLC-272H; first compound 2.53 µM
  relative viability: 0.213
EPLC-272H; first compound 8 µM
  relative viability: 0.201
NCI-H1651; first compound 0.253 µM
  relative viability: 0.506
NCI-H1651; first compound 0.8 µM
  relative viability: 0.436
NCI-H1651; first compound 2.53 µM
  relative viability: 0.568
NCI-H1651; first compound 8 µM
  relative viability: 0.44
NCI-H1755; first compound 0.253 µM
  relative viability: 0.458
NCI-H1755; first compound 0.8 µM
  relative viability: 0.498
NCI-H1755; first compound 2.53 µM
  relative viability: 0.452
NCI-H1755; first compound 8 µM
  relative viability: 0.454
